Experimental data as given in publication PMC6273138, “Inhibitory Effects of Aschantin on Cytochrome P450 and Uridine 5′-diphospho-glucuronosyltransferase Enzyme Activities in Human Liver Microsomes” (Molecules, 2016).
Where two headings read alike, the source gives them in different places.

Columns and labels:
CYP2C9 = CYP2C9 (Homo sapiens, UniProt P11712); assay: Mechanism-based (time- and concentration-dependent) inactivation of CYP2C9 in human liver microsomes; format: in vitro ADME; details: CYP2C9-catalyzed diclofenac 4′-hydroxylation
Protocol: The microsomes (1 mg/mL) were pre-incubated with various concentrations of aschantin in 50 mM potassium phosphate buffer (pH 7.4) in the presence of NADPH. Aliquots (10 µL) of the incubated mixtures were withdrawn at 5, 10, 15, and 20 min after incubation commenced and added to other tubes containing the CYP substrates (2 µM amodiaquine for CYP2C8, 10 µM diclofenac for CYP2C9, 100 µM [S]-mephenytoin for CYP2C19, or 2 µM midazolam for CYP3A4), 1 mM NADPH, 50 mM potassium phosphate buffer (pH 7.4), and 10 mM MgCl2, in 90 µL reaction mixtures. […] Aliquots (5 µL) of the diluted supernatants were analyzed by LC-MS/MS, as described above.

CYP1A2 = target: T1, CYP1A2 (Homo sapiens, UniProt P05177); assay: CYP1A2-catalyzed phenacetin O-de-ethylase inhibition in pooled human liver microsomes
T1 sequence (P05177 1-516): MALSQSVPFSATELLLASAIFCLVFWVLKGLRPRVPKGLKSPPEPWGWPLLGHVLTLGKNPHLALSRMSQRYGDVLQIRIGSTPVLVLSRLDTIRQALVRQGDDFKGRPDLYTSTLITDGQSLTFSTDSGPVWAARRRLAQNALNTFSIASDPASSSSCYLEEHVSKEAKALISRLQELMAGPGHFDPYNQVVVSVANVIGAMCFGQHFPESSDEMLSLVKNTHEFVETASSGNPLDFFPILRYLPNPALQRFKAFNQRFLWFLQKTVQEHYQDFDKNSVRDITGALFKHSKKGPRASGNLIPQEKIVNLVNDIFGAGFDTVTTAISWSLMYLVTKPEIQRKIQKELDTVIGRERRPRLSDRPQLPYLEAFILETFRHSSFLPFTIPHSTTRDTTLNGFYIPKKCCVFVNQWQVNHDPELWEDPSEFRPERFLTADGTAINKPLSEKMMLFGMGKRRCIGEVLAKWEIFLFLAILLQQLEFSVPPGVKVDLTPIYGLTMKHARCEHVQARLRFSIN

UGT1A6 = target: T2, UGT1A6 (Homo sapiens, UniProt P19224); assay: UGT1A6-catalyzed N-acetylserotonin glucuronidation inhibition in pooled human liver microsomes; format: in vitro ADME; details: 1 µM N-acetylserotonin
T2 construct: using pooled human liver microsomes incubated with the cocktail of UGT substrates; tissue Corning Life Sciences 452161; host or cells: pooled human liver microsomes
T2 sequence (P19224 27-532): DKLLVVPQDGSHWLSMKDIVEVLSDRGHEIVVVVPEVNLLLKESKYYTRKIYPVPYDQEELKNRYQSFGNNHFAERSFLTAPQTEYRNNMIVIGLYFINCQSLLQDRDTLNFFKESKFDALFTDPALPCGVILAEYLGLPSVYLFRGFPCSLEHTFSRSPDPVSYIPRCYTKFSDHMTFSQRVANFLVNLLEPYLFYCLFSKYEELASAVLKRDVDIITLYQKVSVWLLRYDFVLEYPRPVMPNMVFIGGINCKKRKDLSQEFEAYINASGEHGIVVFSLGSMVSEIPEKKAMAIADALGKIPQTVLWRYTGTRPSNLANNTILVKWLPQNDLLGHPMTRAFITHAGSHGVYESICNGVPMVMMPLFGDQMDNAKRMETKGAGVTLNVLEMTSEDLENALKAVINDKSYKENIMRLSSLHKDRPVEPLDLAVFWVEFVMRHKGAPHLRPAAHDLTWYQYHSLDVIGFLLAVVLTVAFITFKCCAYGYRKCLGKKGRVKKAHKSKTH
Protocol: The extents of aschantin on UGT1A1, UGT1A3, UGT1A4, UGT1A6, UGT1A9, and UGT2B7 were evaluated by LC-MS/MS, using pooled human liver microsomes incubated with the cocktail of UGT substrates. The method was modified from that of Joo et al..
The metabolites formed from the six UGT cocktail substrates were simultaneously measured using the LC-MS/MS method. […] The mass spectrometer was equipped with an ESI source and was operated in both positive and negative ion modes. […] Each metabolite was quantified via SRM in the negative ion (chenodeoxycholic acid 24-acyl-β-glucuronide, 567.2 > 391.0; mycophenolic acid glucuronide, 495.2 > 318.9; propofol glucuronide, 353.3 > 177.1) and positive ion (SN-38 glucuronide, 569.0 > 393.0; trifluoperazine glucuronide, 584.2 > 408.1; N-acetylserotonin-β-D-glucuronide, 395.2 > 219.0; naloxone 3-β-D-glucuronide, 504.0 > 310.0; meloxicam, 352.0 > 115.1) modes.

Sequence of CYP2C9 (P11712 whole entry): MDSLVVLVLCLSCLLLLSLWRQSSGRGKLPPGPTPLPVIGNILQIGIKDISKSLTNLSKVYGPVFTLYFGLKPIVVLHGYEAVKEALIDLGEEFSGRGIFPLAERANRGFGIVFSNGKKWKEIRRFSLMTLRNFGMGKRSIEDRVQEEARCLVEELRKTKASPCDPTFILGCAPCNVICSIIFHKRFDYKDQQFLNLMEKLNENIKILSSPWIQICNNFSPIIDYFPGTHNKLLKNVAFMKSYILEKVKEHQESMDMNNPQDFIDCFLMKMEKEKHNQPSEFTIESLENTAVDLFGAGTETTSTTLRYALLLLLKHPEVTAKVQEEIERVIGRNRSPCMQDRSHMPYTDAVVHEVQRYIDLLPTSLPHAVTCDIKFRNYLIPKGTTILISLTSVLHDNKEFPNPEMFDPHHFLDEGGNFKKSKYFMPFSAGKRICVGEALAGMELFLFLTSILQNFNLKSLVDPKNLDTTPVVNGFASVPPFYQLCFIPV

## COc1cc([C@H]2OC[C@H]3[C@@H]2CO[C@@H]3c2ccc3c(c2)OCO3)cc(OC)c1OC [Aschantin]
CYP2C9; read-out: Ki (apparent)
  Ki: 3.7 µM
CYP2C9; pH 7.4, probe diclofenac (10 µM)
  kinact: 0.000733 s⁻¹
CYP1A2
  IC50: > 100 µM
CYP1A2; aschantin at 100 µM, human liver microsomes
  inhibition of CYP1A2-mediated phenacetin O-de-ethylation: negligibly inhibited
CYP1A2; read-out: IC50 With Pre-incubation, CYP1A2 phenacetin O-de-ethylase, 50 µM phenacetin, 30 min pre-incubation with microsomes and NADPH
  IC50: > 100 µM
UGT1A6
  IC50: 144 µM
